According to patent publication US20210261507A1, “Crystalline Form of Fluopyram” (Bayer Aktiengesellschaft, priority 2018, published 2021):
Where “and” joins values, the source holds several entries; their conditions need not be identical. Identical values can stand only once.

Key:
Format in all cases: physicochemical
[1] = Ageing of fluopyram suspension concentrate, crystal habit; conditions: 500 g/L suspension concentrate, 1 month at 40 to 45° C.
Method: In an example 500 g/L of fluopyram crystalline active ingredient was added to a mixture of 65 g/L wetters and dispersants, 80 g/L propylene glycol, 2 g/L silicone antifoam in 432 g/L with high shear mixing (Ultra-Turrax®) to reduce the particle size D(v,0.9) to approximately 50 microns, then passed through a bead mill (Eiger® 250 Mini Motormill) to achieve a particles size D(v,0.9) typically 1 to 15 microns. Then a gel composed of 2.4 g/L xanthan and 1 g/L biocide in 117 g/L water was added with low shear mixing (stirrer).

[2] = Aspect ratio of crystals measured from microscopic images of suspension concentrate formulations; conditions: for Aspect ratio, mean: mean of 10 crystals, tables 5.1 to 5.4; for Crystal shape (FIGS. 3a-3d): microscopic images
Method: In an example the aspect ratio for crystals of fluopyram and other different active ingredients was measured from microscopic images taken from suspension concentrate formulations after crystal growth had occurred, diluted to approximately 1% in water. For the purpose of this invention the length is defined as the longest dimension and the width as the shortest dimension of a 2-dimensional image obtained in a transmission optical microscope. The aspect ratio was determine by the dividing the length by the width.

[3] = EC formulation diluted in water and evaporated on the leaf surface, crystal habit; conditions: dilution at 1% in water
Method: In an example an EC formulation was prepared by dissolving 1 to 500 g/L of fluopyram in a mixture comprising a certain amount of emulsifiers and a certain amount of solvent.

[4] = Table 6, crystals present in suspension concentrate formulations, from tables 5.1 to 5.4

Row | Structure (SMILES) | Crystal appearance after ageing [1] | Aspect ratio [2, 4] | Aspect ratio, mean [2] | Crystal shape (FIGS. 3a-3d) [2] | Crystals produced after dilution and evaporation [3] | Aspect ratio ([2]; single crystals, length divided by width)
1 | O=C(NCCc1ncc(C(F)(F)F)cc1Cl)c1ccccc1C(F)(F)F [fluopyram, N-{2-[3-chloro-5-(trifluoromethyl)-2-pyridyl]ethyl}-α,α,α-trifluoro-o-tolu amide] | needle-like appearance | 12.02 | 12.02 | needle-like habit | needle shaped crystals | –
2 | Cc1cc(C)nc(Nc2ccccc2)n1 [pyrimethanil] | – | 1.44 | 1.44 | cubic shaped forms | – | –
3 | CC(C)(C)C(O)(CCc1ccc(Cl)cc1)Cn1cncn1 (stereo not drawn) [tebuconazole] | – | 1.15 | 1.15 | cubic shaped forms | – | 1.00 and 1.20 and 1.30 and 1.02 and 1.22 and 0.83 and 1.07 and 1.44
4 | CON=C(C(=O)OC)c1ccccc1CON=C(C)c1cccc(C(F)(F)F)c1 [trifloxystrobin] | – | 1.25 | 1.25 | cubic shaped forms | – | –
